This note sets out measurements from patent US9018165B2, “Process for the synchronization of ovulation for timed breeding without heat detection” (priority 2003, dated 2015).

The test system of one experiment is mature postpartum sows. Description: Intravulvar injection at estrus detection with AI in mature postpartum sows (Example 2). It counts as in vivo, swine. As to conditions: 50 mcg intravulvar at first estrus detection. As to the method:
Sows were assigned randomly in blocks of two to either control or to be injected intravulvar with 50 mcg of deslorelin in SAIB at the time of estrus detection for sows first detected in estrus in the a.m. and 12 hours later for those first detected in estrus in the p.m. Treated animals were bred AI upon detected estrus and again 24 hours later if still in estrus. Controls received a saline injection on first detected estrus behavior estrus detection and were bred according to the farm's normal procedures.

The test system of another experiment is postpartum sows. Nature of the experiment: Timed injection 96 hours post-weaning and single timed insemination without estrus detection (Example 3). The format is in vivo, swine. Conditions: 50 mcg in SAIB 96 hours post-weaning; single insemination 28+/-2 hours later. As to the method: Approximately 170 postpartum sows were randomly divided into two equal groups comprised of controls and treated. Following weaning, the controls were detected for estrus and bred following the normal standard operating procedures for the farms on which they resided. The treated sows received a 50 mcg dose of deslorelin in SAIB at 96 hours post-weaning and were bred with a single insemination 28+/−2 hours later with no regard to estrus detection. The sows were examined for pregnancy by ultrasound at 21 days and slaughtered around 28 days post breeding. The entire reproductive tract was removed and corpora lutea and embryos were counted.

Molecules are shown by their SMILES.

Turning to `CCNC(=O)[C@@H]1CCCN1C(=O)[C@H](CCCN=C(N)N)NC(=O)[C@H](CC(C)C)NC(=O)[C@@H](Cc1c[nH]c2ccccc12)NC(=O)[C@H](Cc1ccc(O)cc1)NC(=O)[C@H](CO)NC(=O)[C@H](Cc1c[nH]c2ccccc12)NC(=O)[C@H](Cc1cnc[nH]1)NC(=O)[C@@H]1CCC(=O)N1` [Deslorelin, deslorelin], the “difference in pregnancy rates, Control versus Treated (in words)” value in the experiment on mature postpartum sows was “no significant difference”. Further, the “Embryo Survival” value with postpartum sows is on record as 64%.
